# Results taken from ChEMBL document CHEMBL5108051, “Improving the Antimicrobial Performance of Amphiphilic Cationic Antimicrobial Peptides Using Glutamic Acid Full-Scan and Positive Charge Compensation Strategies” (J Med Chem, 2022).
# Activity calls are given as the source filed them. The calls are words filed in the database; no cut-off is given here. Bridge positions count the residues as written; N and C are the ends. Square brackets hold non-standard residues; d marks the D form. Peptide text beside a SMILES is read from it. * marks the point of attachment. X1 = CC[C@H](C)CCCCC(=O)*; Dab = NCC[C@H](N)C(=O)O
# Columns and labels:
# Staphylococcus aureus [1] = experiment: Antibacterial activity against gentamicin resistant Staphylococcus aureus ATCC 25923 assessed as fractional inhibitory concentration index in presence of vancomycin by checkerboard assay; assay type: functional
# Escherichia coli [2] = experiment: Antibiofilm activity against Escherichia coli ATCC 25922 assessed as inhibition of biofilm formation at 0.5 times MIC measured after 24 hrs by crystal violet staining based assay; assay type: functional, organism-based
# [3] = Acute toxicity in BALB/c mouse assessed as rough hairs at 40 to 80 mg/kg, ip administered as single dose measured for 7 days; assay type: organism-based; settings: in vivo, 168 h, dose 40-80 mg/kg, time 7 day
# Staphylococcus aureus [4] = experiment: Antibacterial activity against gentamicin resistant Staphylococcus aureus ATCC 25923 assessed as fractional inhibitory concentration index in presence of polymyxin B by checkerboard assay; assay type: functional
# Staphylococcus aureus [5] = experiment: Antibiofilm activity against Staphylococcus aureus ATCC 25923 assessed as inhibition of biofilm formation measured at 0.5 to 4 times MIC after 24 hrs by crystal violet staining based assay; assay type: functional, organism-based; settings: DDE = dose-dependent effect
# Klebsiella pneumoniae = experiment: Antibacterial activity against Klebsiella pneumoniae ATCC 700603 assessed as growth inhibition measured after 18 to 24 hrs by CLSI based broth microdilution method; assay type: functional; settings: time 18-24 hrs
# Staphylococcus aureus [6] = experiment: Antibacterial activity against rifampin resistant Staphylococcus aureus ATCC 25923 assessed as fractional inhibitory concentration index in presence of polymyxin B by checkerboard assay; assay type: functional
# [7] = Acute toxicity in BALB/c mouse assessed as decrease in motility at 40 to 80 mg/kg, ip administered as single dose measured for 7 days; assay type: organism-based; settings: in vivo, 168 h, dose 40-80 mg/kg, time 7 day
# Staphylococcus aureus [8] = experiment: Antibacterial activity against Staphylococcus aureus ATCC 25923 assessed as fractional inhibitory concentration index in presence of rifampin by checkerboard assay; assay type: functional
# [9] = Cytotoxicity against human Glomerular mesenchymal cell assessed as reduction in cell viability at 0 to 128 uM incubated for 1 hr by Resazurin cell viability kit; assay type: toxicity, cell-based; settings: glomerular mesenchymal cells, dose 0-128 µM
# Escherichia coli [10] = experiment: Bactericidal activity against Escherichia coli ATCC 25922 at 2 times MIC measured after 3 hrs by time-killing kinetics assay; assay type: functional
# Staphylococcus aureus [11] = experiment: Antimicrobial activity against Staphylococcus aureus ATCC 25923 assessed as fold increase in MIC in presence of NaCl; assay type: functional
# Staphylococcus aureus [12] = experiment: Antibacterial activity against Staphylococcus aureus ATCC 25923 assessed as fractional inhibitory concentration index in presence of polymyxin B by checkerboard assay; assay type: functional
# Escherichia coli [13] = experiment: Antibacterial activity against rifampin resistant Escherichia coli ATCC 25922 assessed as fractional inhibitory concentration index in presence of polymyxin B by checkerboard assay; assay type: functional
# Escherichia coli [14] = experiment: Antibacterial activity against gentamicin resistant Escherichia coli ATCC 25922 assessed as fractional inhibitory concentration index in presence of vancomycin by checkerboard assay; assay type: functional
# Staphylococcus aureus [15] = experiment: Antimicrobial activity against Staphylococcus aureus ATCC 25923 assessed as fold increase in MIC in presence of MgCl2; assay type: functional
# [16] = Acute toxicity in BALB/c mouse assessed as abdominal twitching at 40 to 80 mg/kg, ip administered as single dose measured for 7 days; assay type: organism-based; settings: in vivo, 168 h, dose 40-80 mg/kg, time 7 day
# Cell membrane [17] = experiment: Induction of outer membrane permeabilization to NPN in Staphylococcus aureus ATCC 25923 cells assessed as increase in fluorescence intensity measured within 1 min by NPN fluorescent dye based microplate reader assay; assay type: subcellular
# Escherichia coli [18] = experiment: Antibiofilm activity against Escherichia coli ATCC 25922 assessed as inhibition of biofilm formation at 1 times MIC measured after 24 hrs by crystal violet staining based assay; assay type: functional, organism-based
# Staphylococcus aureus [19] = experiment: In vivo antimicrobial activity against Staphylococcus aureus ATCC 25923 infected in BALB/C mouse pulmonary infection model at 5 to 10 mg/kg, ip; assay type: functional, organism-based; settings: dose 5-10 mg/kg
# Erythrocyte = experiment: Hemolytic activity against mouse RBC measured after 1 hrs; assay type: toxicity, cell-based
# Cell membrane [20] = experiment: Induction of cell membrane disruption in Staphylococcus aureus ATCC 25923 assessed as cell morphological damage measured after 30 mins by […] electron microscope analysis; assay type: subcellular
# Cell membrane [21] = experiment: Induction of cytoplasmic membrane depolarization in Staphylococcus aureus ATCC 25923 assessed as increase in fluorescence intensity at 1 to 4 times MIC measured within 1 min by DiSC3-5 dye based fluorescence method; assay type: subcellular; settings: DDE = dose-dependent effect
# Escherichia coli [22] = experiment: Antibacterial activity against Escherichia coli ATCC 25922 assessed as fractional inhibitory concentration index in presence of kanamycin by checkerboard assay; assay type: functional
# Escherichia coli [23] = experiment: Bactericidal activity against Escherichia coli ATCC 25922 at 1 times MIC measured after 6 hrs by time-killing kinetics assay; assay type: functional
# Cell membrane [24] = experiment: Induction of cell membrane disruption in Escherichia coli ATCC 25922 assessed as increase in PI uptake measured after 30 to 120 mins by propidium iodide staining based FACS flow cytometry analysis (reference value: 6.0 %); assay type: subcellular; settings: time 30-120 min
# [25] = Acute toxicity in BALB/c mouse assessed as mortality at 40 mg/kg, ip administered as single dose measured for 7 days; assay type: organism-based; settings: in vivo, time 7 day, read-out: Activity
# Escherichia coli [26] = experiment: Antibacterial activity against rifampin resistant Escherichia coli ATCC 25922 assessed as fractional inhibitory concentration index in presence of vancomycin by checkerboard assay; assay type: functional
# Escherichia coli [27] = experiment: Antibacterial activity against gentamicin resistant Escherichia coli ATCC 25922 assessed as fractional inhibitory concentration index in presence of polymyxin B by checkerboard assay; assay type: functional
# Escherichia coli [28] = experiment: Antibacterial activity against Escherichia coli ATCC 25922 assessed as fractional inhibitory concentration index in presence of polymyxin B by checkerboard assay; assay type: functional
# Staphylococcus aureus [29] = experiment: Antibacterial activity against Staphylococcus aureus ATCC 25923 infected in BALB/C mouse pulmonary infection model assessed as increase in alveolar aggregation in lung at 10 mg/kg, ip after 24 hrs by H and E staining method; assay type: functional, organism-based
# [30] = Acute toxicity in BALB/c mouse assessed as pathological changes in lung at 20 to 80 mg/kg, ip administered as single dose measured for 7 days by H and E staining method; assay type: organism-based; settings: in vivo, 168 h, dose 20-80 mg/kg, time 7 day
# Escherichia coli [31] = experiment: Antimicrobial activity against Escherichia coli ATCC 25922 in presence of KCl; assay type: functional, organism-based
# Escherichia coli [32] = experiment: Antimicrobial activity against Escherichia coli ATCC 25922 in presence of NaCl; assay type: functional, organism-based
# [33] = Stability of compound in serum measured after 1 to 6 hrs by RP-HPLC analysis; assay type: ADME, cell-free; settings: time 1-6 hrs
# Escherichia coli [34] = experiment: Antimicrobial activity against Escherichia coli ATCC 25922 assessed as reduction in survival rate in presence of >= 0.02 microg/ml of trypsin measured after 6 hrs; assay type: functional, organism-based
# Escherichia coli [35] = experiment: Bactericidal activity against Escherichia coli ATCC 25922 at 1 times MIC measured after 1 hr by time-killing kinetics assay; assay type: functional
# Cell membrane [36] = experiment: Induction of cytoplasmic membrane depolarization in Escherichia coli ATCC 25922 assessed as increase in fluorescence intensity at 4 times MIC measured within 1 min by DiSC3-5 dye based fluorescence method; assay type: subcellular
# [37] = Acute toxicity in BALB/c mouse spleen assessed as inflammatory cell infiltration at 10 to 40 mg/kg, ip administered as single dose measured for 7 days by H and E staining method; assay type: organism-based; settings: in vivo, 168 h, dose 10-40 mg/kg, time 7 day
Compound,fractional inhibitory concentration index (FICI) (Staphylococcus aureus [1]),Activity (Escherichia coli [2]),Activity [3],fractional inhibitory concentration index (FICI) (Staphylococcus aureus [4]),Activity (Staphylococcus aureus [5]),MIC (Klebsiella pneumoniae) [µM],fractional inhibitory concentration index (FICI) (Staphylococcus aureus [6]),Activity [7],fractional inhibitory concentration index (FICI) (Staphylococcus aureus [8]),CC50 at 1 h [9] [µM],fold change (FC) (Staphylococcus aureus [11]),fractional inhibitory concentration index (FICI) (Staphylococcus aureus [12]),fractional inhibitory concentration index (FICI) (Escherichia coli [13]),fractional inhibitory concentration index (FICI) (Escherichia coli [14]),fold change (FC) (Staphylococcus aureus [15]),Activity (Cell membrane [17]),Activity (Staphylococcus aureus [19]),MHC10 (Erythrocyte) [µM],fractional inhibitory concentration index (FICI) (Escherichia coli [22]),Activity (Cell membrane [24]) [%],further results
CC[C@H](C)[C@H](NC(=O)[C@@H]1CCCN1C(=O)[C@H](CC(C)C)NC(=O)[C@@H](N)Cc1ccccc1)C(=O)N[C@H](C(=O)N[C@@H](C)C(=O)N[C@@H](CCCCN)C(=O)N[C@@H](CC(C)C)C(=O)N[C@@H](CC(C)C)C(=O)N[C@@H](CO)C(=O)NCC(=O)N[C@@H](CC(C)C)C(=O)N[C@@H](CC(C)C)C(N)=O)C(C)C (H-FLPIVAKLLSGLL-NH2),0.625,Active,Toxic,0.625,Dde,> 128,0.5,Toxic,0.75,35.9,2,0.75,0.25,0.75,2,Active,Active,12.53,1.125,78.3,Activity (Escherichia coli [10]): 100%; Activity [16]: Toxic; Activity (Escherichia coli [18]): Active; Activity (Cell membrane [20]): Active; Activity (Cell membrane [21]): Dde; Activity (Escherichia coli [23]): 100%; mortality at 168 h [25]: 40%; fractional inhibitory concentration index (FICI) (Escherichia coli [26]): 0.25; fractional inhibitory concentration index (FICI) (Escherichia coli [27]): 0.75; fractional inhibitory concentration index (FICI) (Escherichia coli [28]): 0.625
CC(C)C[C@H](NC(=O)[C@H](CC(C)C)NC(=O)[C@H](CCC(=O)O)NC(=O)[C@H](CCCCN)NC(=O)[C@H](CC(C)C)NC(=O)[C@H](CC(C)C)NC(=O)[C@H](CCCCN)NC(=O)[C@H](C)NC(=O)[C@@H](NC(=O)[C@H](CCCCN)NC(=O)[C@@H]1CCCN1C(=O)[C@H](CC(C)C)NC(=O)[C@@H](N)Cc1ccccc1)C(C)C)C(N)=O (H-FLPKVAKLLKELL-NH2),,,Toxic,0.75,Dde,16,0.5,Toxic,,> 128,,0.75,0.25,0.75,,Active,Active,202,0.625,83.1,Activity (Staphylococcus aureus [29]): Active; Activity [30]: Non-Toxic; Activity (Escherichia coli [31]): Active; Activity [16]: Toxic; Activity (Escherichia coli [32]): Active; Activity (Cell membrane [20]): Active; Activity (Cell membrane [21]): Dde; Stability [33]: Stable; mortality at 168 h [25]: 20%; fractional inhibitory concentration index (FICI) (Escherichia coli [26]): 0.825; fractional inhibitory concentration index (FICI) (Escherichia coli [27]): 0.75; fractional inhibitory concentration index (FICI) (Escherichia coli [28]): 0.375
CC[C@H](C)CCCCC(=O)N[C@@H](CCN)C(=O)N[C@H](C(=O)N[C@@H](CCN)C(=O)N[C@H]1CCNC(=O)[C@H]([C@@H](C)O)NC(=O)[C@H](CCN)NC(=O)[C@H](CCN)NC(=O)[C@H](CC(C)C)NC(=O)[C@@H](Cc2ccccc2)NC(=O)[C@H](CCN)NC1=O)[C@@H](C)O (X1-[Dab]T[Dab][Dab][Dab][dF]L[Dab][Dab]T; lactam 4-C),1,Active,,,,4,,,2,,4,,,0.3125,2,Active,Active,> 256,0.375,38.5,Activity (Escherichia coli [34]): Active; Activity (Escherichia coli [35]): 100%; Activity (Cell membrane [36]): Active; Activity (Escherichia coli [31]): Active; Activity (Escherichia coli [32]): Active; Activity (Escherichia coli [18]): Active; Activity [37]: Non-Toxic; Stability [33]: Stable
